Assay: xn = mol fraction of the nth substance listed
Details: Liquid; for mass density: Vibrating tube method; for viscosity: Vibrating wire viscometry

O=C=O [carbon dioxide] + O
Details | mass density [kg/m3] | viscosity [mPa·s]
274.72 K, 30290 kPa, x1 = 0.0271 | 1030.1 | –
274.72 K, 50410 kPa, x1 = 0.0271 | 1038.8 | –
274.72 K, 70530 kPa, x1 = 0.0271 | 1047.2 | –
274.72 K, 100770 kPa, x1 = 0.0271 | 1059.2 | –
274.73 K, 15010 kPa, x1 = 0.0086 | 1012 | –
274.73 K, 30110 kPa, x1 = 0.0086 | 1019 | –
274.73 K, 50240 kPa, x1 = 0.0086 | 1028.1 | –
274.73 K, 70360 kPa, x1 = 0.0086 | 1036.8 | –
274.73 K, 100670 kPa, x1 = 0.0086 | 1049.3 | –
274.77 K, 15080 kPa, x1 = 0.0168 | 1017.3 | –
274.77 K, 30190 kPa, x1 = 0.0168 | 1024.1 | –
274.77 K, 50310 kPa, x1 = 0.0168 | 1033 | –
274.77 K, 70430 kPa, x1 = 0.0168 | 1041.6 | –
274.77 K, 100710 kPa, x1 = 0.0168 | 1053.9 | –
294.27 K, 15100 kPa, x1 = 0.0168 | – | 1.049
294.27 K, 30200 kPa, x1 = 0.0168 | – | 1.044
294.27 K, 50200 kPa, x1 = 0.0168 | – | 1.044
294.27 K, 70200 kPa, x1 = 0.0168 | – | 1.041
294.27 K, 96300 kPa, x1 = 0.0168 | – | 1.046
294.3 K, 15100 kPa, x1 = 0.0086 | – | 1.013
294.3 K, 30200 kPa, x1 = 0.0086 | – | 1.014
294.3 K, 50300 kPa, x1 = 0.0086 | – | 1.012
294.3 K, 70300 kPa, x1 = 0.0086 | – | 1.008
294.3 K, 96400 kPa, x1 = 0.0086 | – | 1.008
294.31 K, 30300 kPa, x1 = 0.0271 | – | 1.096
294.31 K, 50300 kPa, x1 = 0.0271 | – | 1.095
294.31 K, 70400 kPa, x1 = 0.0271 | – | 1.097
294.31 K, 96500 kPa, x1 = 0.0271 | – | 1.1
296.17 K, 15100 kPa, x1 = 0.0086 | 1008.6 | –
296.17 K, 30200 kPa, x1 = 0.0086 | 1015 | –
296.17 K, 50260 kPa, x1 = 0.0086 | 1023.4 | –
296.17 K, 70330 kPa, x1 = 0.0086 | 1031.4 | –
296.17 K, 100650 kPa, x1 = 0.0086 | 1042.9 | –
296.18 K, 30250 kPa, x1 = 0.0271 | 1025.3 | –
296.18 K, 50360 kPa, x1 = 0.0271 | 1033.4 | –
296.18 K, 70440 kPa, x1 = 0.0271 | 1041.2 | –
296.18 K, 100760 kPa, x1 = 0.0271 | 1052.6 | –
296.19 K, 15070 kPa, x1 = 0.0168 | 1013.3 | –
296.19 K, 30170 kPa, x1 = 0.0168 | 1019.7 | –
296.19 K, 50300 kPa, x1 = 0.0168 | 1027.9 | –
296.19 K, 70410 kPa, x1 = 0.0168 | 1035.9 | –
296.19 K, 100730 kPa, x1 = 0.0168 | 1047.3 | –
322.91 K, 15000 kPa, x1 = 0.0168 | – | 0.568
322.91 K, 30100 kPa, x1 = 0.0168 | – | 0.573
322.91 K, 50200 kPa, x1 = 0.0168 | – | 0.578
322.91 K, 70200 kPa, x1 = 0.0168 | – | 0.584
322.91 K, 96200 kPa, x1 = 0.0168 | – | 0.592
322.93 K, 15000 kPa, x1 = 0.0086 | – | 0.56
322.93 K, 30100 kPa, x1 = 0.0086 | – | 0.564
322.93 K, 50200 kPa, x1 = 0.0086 | – | 0.568
322.93 K, 70200 kPa, x1 = 0.0086 | – | 0.573
322.93 K, 96300 kPa, x1 = 0.0086 | – | 0.582
323.12 K, 70400 kPa, x1 = 0.0271 | – | 0.606
323.12 K, 96500 kPa, x1 = 0.0271 | – | 0.615
323.43 K, 15060 kPa, x1 = 0.0168 | 1002.5 | –
323.43 K, 30180 kPa, x1 = 0.0168 | 1008.8 | –
323.43 K, 50300 kPa, x1 = 0.0168 | 1016.9 | –
323.43 K, 70420 kPa, x1 = 0.0168 | 1024.6 | –
323.43 K, 70460 kPa, x1 = 0.0271 | 1029.6 | –
323.43 K, 100720 kPa, x1 = 0.0168 | 1035.7 | –
323.43 K, 100780 kPa, x1 = 0.0271 | 1040.7 | –
323.45 K, 15020 kPa, x1 = 0.0086 | 998.4 | –
323.45 K, 30130 kPa, x1 = 0.0086 | 1004.7 | –
323.45 K, 50250 kPa, x1 = 0.0086 | 1012.8 | –
323.45 K, 70360 kPa, x1 = 0.0086 | 1020.6 | –
323.45 K, 100720 kPa, x1 = 0.0086 | 1031.6 | –
348.32 K, 15050 kPa, x1 = 0.0086 | 984.8 | –
348.32 K, 30150 kPa, x1 = 0.0086 | 991.3 | –
348.32 K, 50270 kPa, x1 = 0.0086 | 999.5 | –
348.32 K, 70370 kPa, x1 = 0.0086 | 1007.3 | –
348.32 K, 100710 kPa, x1 = 0.0086 | 1018.6 | –
348.33 K, 70580 kPa, x1 = 0.0271 | 1015.3 | –
348.33 K, 100780 kPa, x1 = 0.0271 | 1026.8 | –
348.38 K, 30200 kPa, x1 = 0.0168 | 994.9 | –
348.38 K, 50320 kPa, x1 = 0.0168 | 1003.2 | –
348.38 K, 70450 kPa, x1 = 0.0168 | 1011.1 | –
348.38 K, 100740 kPa, x1 = 0.0168 | 1022.4 | –
373.03 K, 30100 kPa, x1 = 0.0168 | – | 0.2932
373.03 K, 50200 kPa, x1 = 0.0168 | – | 0.2989
373.03 K, 70200 kPa, x1 = 0.0168 | – | 0.304
373.03 K, 96200 kPa, x1 = 0.0168 | – | 0.3111
373.13 K, 15000 kPa, x1 = 0.0086 | – | 0.286
373.13 K, 30100 kPa, x1 = 0.0086 | – | 0.291
373.13 K, 50200 kPa, x1 = 0.0086 | – | 0.297
